≈ marks a conversion by molar mass, not a printed value. Read-outs that look alike come from different tables or passages of the source.
Tests used:
[1] = molecular target: T1, SpsB (Staphylococcus aureus signal peptidase) (Staphylococcus aureus, UniProt P0A070); experiment: cell-based; format: biochemical; details: SpsB IC50, whole-cell S. aureus (USA300 background, overexpressing SpsB) as SpsB source; fluorogenic peptide substrate, kinetic read 30 min
T1 construct: This assay uses a suspension of Staphylococcus aureus cells as a source of SpsB instead of recombinant SpsB protein; endogenous in cells; host or cells: S. aureus, USA300 background, overexpressing SpsB (whole-cell suspension from frozen pellets)
T1 sequence (P0A070 whole entry): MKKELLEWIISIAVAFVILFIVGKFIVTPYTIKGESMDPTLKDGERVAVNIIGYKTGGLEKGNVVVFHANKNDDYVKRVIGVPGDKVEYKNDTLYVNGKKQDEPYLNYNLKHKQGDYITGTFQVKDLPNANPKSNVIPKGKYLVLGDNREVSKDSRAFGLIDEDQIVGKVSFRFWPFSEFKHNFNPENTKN
Method: A kinetic fluorogenic enzyme activity assay was used to assess inhibition of SpsB (Staphylococcus aureus signal peptidase) activity and IC50s were determined. This assay uses a suspension of Staphylococcus aureus cells as a source of SpsB instead of recombinant SpsB protein.
Cell preparation: Luria broth (LB) was inoculated with S. aureus (USA300 background, overexpressing SpsB) and shaken at 37° C. until an OD600 nm of 1.5-2.0 was reached (˜4 hr). The culture was then diluted to an OD600 nm of 1.0 with LB, aliquoted and centrifuged at 10,000×g for 2 mins. The supernatant was removed and the pellet was resuspended in phosphate buffer (1×PBS, 12.5 mg/L MgCl2, 25 mg/L CaCl2, 0.1% Tween-80) to an OD600 nm of 0.5, then centrifuged again at 10,000x g for 2 mins. The supernatant was removed and the pellets were frozen at −20° C.
Test compounds were prepared in DMSO at a concentration of 10 mg/mL. These compound stocks were diluted into DMSO to a concentration of 25 μg/mL and serial 3-fold dilutions were made in DMSO, for a total of 11 compound concentrations. 20 nL of each compound solution was pre-spotted into a white 384-well plate (50 μL/well polypropylene, Nunc) using acoustic fluid transfer (Echo).
Frozen S. aureus pellets were resuspended in assay buffer (1x PBS, 12.5 mg/L MgCl2, 25 mg/L CaCl2, 0.1% Tween-80) to an OD600 nm of 0.05, then mixed 1:1 (v/v) with 20 μM substrate ((Dabcyl)βAla-KPAKAAE(Edans)) in assay buffer, and this solution was added (20 μL/well) to the 384-well plate that had been pre-spotted with compound. Fluorescence intensity was then immediately read kinetically for 30 minutes with 2 minute read intervals to monitor cleavage of the internally quenched peptide substrate (excitation wavelength=340 nm, emission wavelength=490 nm, Molecular Devices Spectramax M5). Reaction rate (slope) was plotted against inhibitor concentration to derive the IC50.

[2] = tested on: Escherichia coli MC4100 harboring the IMP4213 (E. coli IMP); experiment: microbe, parasite or virus in culture; format: cell-based; details: 35° C., 22 hours; for MIC (μg/mL) E. coli IMP: E. coli MC4100 IMP4213, increased outer-membrane permeability; for MIC: Escherichia coli, 22 h, read-out: MIC (μg/mL) E. coli IMP, E. coli MC4100 IMP4213, increased outer-membrane permeability
Outline: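 Ten 2-fold dilutions, from 4 μg/mL or from 0.5 μg/mL depending on protocol, are challenged with bacteria at OD600 0.0005 in Tween-80-supplemented cation-adjusted Mueller Hinton Broth. Plates incubate 22 hours at 35° C per CLSI. The E. coli IMP4213 strain has increased outer-membrane permeability.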

[3] = tested on: Escherichia coli ATCC 25922; experiment: Minimum inhibitory concentration, broth micro-dilution (CLSI), E. coli; format: cell-based; details: 35° C., 22 hours; for MIC: Escherichia coli, ATCC25922, 22 h
[4] = tested on: Methicillin Resistant Staphylococcus aureus strain USA 300, NRS384; experiment: Minimum inhibitory concentration, broth micro-dilution (CLSI), S. aureus; format: cell-based; details: 35° C., 22 hours; for MIC: Staphylococcus aureus, MRSA / NRS 384 / USA300, 22 h
Outline: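 Colonies grown 20 hours at 35° C were suspended in cation-adjusted Mueller Hinton Broth with 0.002% Tween-80. Cells were then added to 2-fold compound dilutions starting at 4 or 0.5 μg/mL, at OD600 0.0005.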

[5] = read-out: MIC (μg/mL) E. coli, E. coli ATCC 25922
[6] = read-out: MIC (μg/mL) S. aureus, MRSA USA 300 NRS384
[7] = E. coli ATCC 25922, read-out: MIC (μg/mL) E. coli
[8] = MRSA USA 300 NRS384, read-out: MIC (μg/mL) S. aureus

SMILES | IC50 [1] [nM] | MIC (μg/mL) E. coli IMP [2] [µg/mL] | MIC (μg/mL) E. coli ([3]; E. coli ATCC 25922) [µg/mL] | MIC (μg/mL) S. aureus ([4]; MRSA USA 300 NRS384) [µg/mL] | MIC [2] [µg/mL] | MIC [3, 5] [µg/mL] | MIC [4, 6] [µg/mL] | MIC [3, 7] [µg/mL] | MIC [4, 8] [µg/mL]
Cc1cc(C2CC2c2ccccc2)ccc1C(=O)N[C@@H](CCN)C(=O)N(C)[C@@H]1C(=O)N[C@@H](C)C(=O)N[C@H](C(=O)NCC#N)Cc2ccc(OCCN)c(c2)-c2cc1ccc2OCCN (mixture of isomers) [Compound 440] | 0.81 | 0.063 | 8 | 0.19 |  |  |  |  | 
C[C@@H]1NC(=O)[C@@H](N(C)C(=O)[C@H](CCCCN)NC(=O)c2ccc(-c3ccc(Cl)cc3)cc2)c2ccc(OCC(O)CN)c(c2)-c2cc(ccc2O)C[C@@H](C(=O)NCC#N)NC1=O (mixture of isomers) [Compound 514] | 2 |  |  |  | 0.19 | 32 | 0.25 |  | 
CCCCCCCCCC(=O)N[C@@H](C(=O)N[C@@H](CCN)C(=O)N(C)[C@@H]1C(=O)N[C@@H](C)C(=O)N[C@H](C(=O)NCC#N)Cc2ccc(OCCN)c(c2)-c2cc1ccc2OCCN)C(C)O (single isomer, unassigned) [Compound 357-P2] | 1.1 |  |  |  | 0.094 (≈ 0.105 µM) | 12 (≈ 13.4 µM) | 0.094 (≈ 0.105 µM) |  | 
CCCCCCCCC(O)C(=O)NC(CO)C(=O)N(C)C1C(=O)NC(C)C(=O)NC(C(=O)NCC#N)Cc2ccc(OCCN)c(c2)-c2cc1ccc2OCCN (single isomer, unassigned) [Compound 393-P1] | 5.9 |  |  |  | 1 (≈ 1.26 µM) | > 64 | 2 (≈ 2.52 µM) |  | 
CCCCCCCCC(O)C(=O)NC(CO)C(=O)N(C)C1C(=O)NC(C)C(=O)NC(C(=O)NCC#N)Cc2ccc(OCCN)c(c2)-c2cc1ccc2OCCN (single isomer, unassigned) [Compound 393-P2] | 4.7 | 2 (≈ 2.52 µM) | >64 | 1 (≈ 1.26 µM) |  |  |  |  | 
CCCCCCCCC(F)C(=O)NC(CO)C(=O)N(C)C1C(=O)NC(C)C(=O)NC(C(=O)NCC#N)Cc2ccc(OCCN)c(c2)-c2cc1ccc2OCCN (single isomer, unassigned) [Compound 394-P1] | 3.9 |  |  |  | 0.25 (≈ 0.314 µM) | > 64 | 1 (≈ 1.25 µM) |  | 
CCCCCCCCC(F)C(=O)NC(CO)C(=O)N(C)C1C(=O)NC(C)C(=O)NC(C(=O)NCC#N)Cc2ccc(OCCN)c(c2)-c2cc1ccc2OCCN (single isomer, unassigned) [Compound 394-P2] | 2.7 | 0.38 (≈ 0.477 µM) | 64 (≈ 80.3 µM) | 0.5 (≈ 0.627 µM) |  |  |  |  | 
CCCCCc1ncc(C(=O)N[C@@H](CCN)C(=O)N(C)[C@@H]2C(=O)N[C@@H](C)C(=O)N[C@H](C(=O)NCC#N)Cc3ccc(OCCN)c(c3)-c3cc2ccc3OCCN)c(C)n1 [Compound 200] | 2.8 |  |  |  |  |  |  | 4 (≈ 4.83 µM) | 1 (≈ 1.21 µM)
Cc1cc(Oc2ccc(C(C)(C)C)cc2)ccc1C(=O)N[C@@H](CCN)C(=O)N(C)[C@@H]1C(=O)N[C@@H](C)C(=O)N[C@H](C(=O)NCC#N)Cc2ccc(OCCN)c(c2)-c2cc1ccc2OCCN [Compound 302] | 0.79 |  |  |  |  | 0.25 (≈ 0.277 µM) | 0.031 (≈ 0.0343 µM) |  | 
C[C@@H]1NC(=O)[C@@H](N(C)C(=O)[C@H](CCCCN)NC(=O)c2ccc(-c3ccc(Cl)cc3)cc2)c2ccc(OCCN)c(c2)-c2cc(ccc2O)C[C@@H](C(=O)NCC#N)NC1=O [Compound 318] | 0.8 |  |  |  |  |  |  |  | 
CCCCc1ccc(-c2ccc(C(=O)N[C@@H](CN)C(=O)N(C)[C@@H]3C(=O)N[C@@H](C)C(=O)N[C@H](C(=O)N[C@@H](C)C#N)Cc4ccc(OCCN)c(c4)-c4cc3ccc4OCCN)cc2)cc1 [Compound 340] | 0.69 |  |  |  | < 0.063 |  |  | 0.75 (≈ 0.858 µM) | 
CCCCCCCCc1ccc(C(=O)N[C@@H](CCCN)C(=O)N(C)[C@@H]2C(=O)N[C@@H](C)C(=O)N[C@H](C(=O)NCC#N)Cc3ccc(OC)c(c3)-c3cc2ccc3OC)cc1 [Compound 471] | 10 |  |  |  | < 0.063 |  |  | 48 (≈ 59.3 µM) | 
CCCCc1ccc(C(=O)N[C@H](CCCCN)CC(=O)N(C)[C@@H]2C(=O)N[C@@H](C)C(=O)N[C@H](C(=O)NCC#N)Cc3ccc(OCCN)c(c3)-c3cc2ccc3OCCN)c(C)c1 [Compound 510] |  |  |  |  | > 4 |  |  | > 64 | 1.5 (≈ 1.76 µM)
CCCCc1ccc(C(=O)N[C@@H](CCN)CC(=O)N(C)[C@@H]2C(=O)N[C@@H](C)C(=O)N[C@H](C(=O)NCC#N)Cc3ccc(OCCN)c(c3)-c3cc2ccc3OCCN)c(C)c1 [Compound 511] |  |  |  |  | 1 (≈ 1.21 µM) |  |  | > 64 | 1.5 (≈ 1.82 µM)
CCCCCc1ccc(C(=O)N[C@@H](CCN)CC(=O)N(C)[C@@H]2C(=O)N[C@@H](C)C(=O)N[C@H](C(=O)NCC#N)Cc3ccc(OCCN)c(c3)-c3cc2ccc3OCCN)c(C)c1 [Compound 512] |  |  |  |  | 0.5 (≈ 0.595 µM) |  |  | 64 (≈ 76.2 µM) | 0.38 (≈ 0.452 µM)
CCCCCCc1ccc(C(=O)N[C@@H](CCN)CC(=O)N(C)[C@@H]2C(=O)N[C@@H](C)C(=O)N[C@H](C(=O)NCC#N)Cc3ccc(OCCN)c(c3)-c3cc2ccc3OCCN)c(C)c1 [Compound 513] |  |  |  |  | 0.13 (≈ 0.152 µM) |  |  | 16 (≈ 18.7 µM) | 0.19 (≈ 0.222 µM)
CCCCCCCCCCN(CCC(=O)N[C@@H](CCCCNC(=O)OC(C)(C)C)C(=O)N(C)[C@@H]1C(=O)N[C@@H](C)C(=O)N[C@H](C(=O)O)Cc2ccc(OC(=O)OC(C)(C)C)c(c2)-c2cc1ccc2OC1O[C@H](CO)[C@@H](O)[C@H](O)[C@H]1NC(=O)OC(C)(C)C)C(=O)OC(C)(C)C (some centres unmarked) [Compound 516] |  |  |  |  | > 4 |  |  | > 64 | 2 (≈ 1.52 µM)
CCCCc1ccc(-c2ccc(C(=O)N[C@@H](CCC(=O)NCC(O)CO)C(=O)N(C)[C@@H]3C(=O)N[C@@H](C)C(=O)N[C@H](C(=O)NCC#N)Cc4ccc(OCCN)c(c4)-c4cc3ccc4OCCN)cc2)cc1 (some centres unmarked) [Compound 517] |  |  |  |  | 0.19 (≈ 0.195 µM) |  |  | 6 (≈ 6.15 µM) | 0.38 (≈ 0.389 µM)
CCCCCCc1ccc(C(=O)N[C@@H](CCN[C@@H]2[C@@H](O)[C@H](O)[C@@H](CO)O[C@@H]2O)C(=O)N(C)[C@@H]2C(=O)N[C@@H](C)C(=O)N[C@H](C(=O)NCC#N)Cc3ccc(OCCN)c(c3)-c3cc2ccc3OCCN)c(C)c1 [Compound 518] |  |  |  |  | 0.063 (≈ 0.0629 µM) | 4 (≈ 3.99 µM) | 0.38 (≈ 0.379 µM) |  | 
CCCCCCc1ccc(C(=O)N[C@@H](CCN)C(=O)N(C)[C@@H]2C(=O)N[C@@H](C)C(=O)N[C@H](C(=O)NCC#N)Cc3ccc(OCCN)c(c3)-c3cc2ccc3OCCN)c(OCCN)c1 [Compound 519] |  |  |  |  | 0.25 (≈ 0.282 µM) |  |  | 16 (≈ 18.1 µM) | 0.13 (≈ 0.147 µM)
CCCCCCCCCC(=O)N[C@H](CO)C(=O)N1CC(N)C[C@H]1C(=O)N(C)[C@@H]1C(=O)N[C@@H](C)C(=O)N[C@H](C(=O)NCC#N)Cc2ccc(OCCN)c(c2)-c2cc1ccc2OCCN (some centres unmarked) [Compound 524-1] |  |  |  |  | 0.19 (≈ 0.213 µM) | 16 (≈ 18 µM) | 0.22 (≈ 0.247 µM) |  | 
CCCCCCCCCCNCC(CO)C(=O)N(C)[C@@H]1C(=O)N[C@@H](C)C(=O)N[C@H](C(=O)NCC#N)Cc2ccc(OCCN)c(c2)-c2cc1ccc2OCCN (some centres unmarked) [Compound 525] |  |  |  |  | > 4 |  |  | > 64 | 1.5 (≈ 1.93 µM)
CCCCCCc1ccc(C(=O)N2CCC(N)C[C@H]2C(=O)N(C)[C@@H]2C(=O)N[C@@H](C)C(=O)N[C@H](C(=O)NCC#N)Cc3ccc(OCCN)c(c3)-c3cc2ccc3OCCN)c(C)c1 (some centres unmarked) [Compound 526-3] |  |  |  |  | 0.031 (≈ 0.0358 µM) |  |  | 3 (≈ 3.46 µM) | 0.063 (≈ 0.0727 µM)
CCCCCCOc1ccc(N2CCN(c3ccc(C(=O)N[C@@H](CCN)C(=O)N(C)[C@@H]4C(=O)N[C@@H](C)C(=O)N[C@H](C(=O)NCC#N)Cc5ccc(OCCN)c(c5)-c5cc4ccc5OCCN)cc3)CC2)cc1 [Compound 527] |  |  |  |  | 0.063 (≈ 0.0629 µM) |  |  | 4 (≈ 3.99 µM) | 0.063 (≈ 0.0629 µM)

Source: patent US20180327367A1, “MACROCYCLIC BROAD SPECTRUM ANTIBIOTICS” (priority 2015, published 2018)
